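1) Cells in 96-well plates. 2) Compound, 48 h, 5 concentrations. 3) Linear interpolation between surrounding doses. 4) Unreached endpoint = highest concentration. The concentration for 50% growth inhibition is given as GI50. TGI denotes the concentration required for complete inhibition of growth.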
How the values were obtained:
Assay in all cases: NCI anticancer screen, dose series, 48 h
SW-620 colon = system: SW-620 colon
K-562 leukemia = system: K-562 leukemia
A498 renal = system: A498 renal
LOX IMVI melanoma = system: LOX IMVI melanoma
CCRF-CEM leukemia = system: CCRF-CEM leukemia
RXF 393 renal = system: RXF 393 renal
HS 578T breast = system: HS 578T breast
ACHN renal = system: ACHN renal
SR leukemia = system: SR leukemia
NCI-H23 lung = system: NCI-H23 lung
HL-60(TB) leukemia = system: HL-60(TB) leukemia
CAKI-1 renal = system: CAKI-1 renal
SF-268 CNS = system: SF-268 CNS
BT-549 breast = system: BT-549 breast
MALME-3M melanoma = system: MALME-3M melanoma
SNB-19 CNS = system: SNB-19 CNS
UACC-257 melanoma = system: UACC-257 melanoma
OVCAR-3 ovarian = system: OVCAR-3 ovarian
DU-145 prostate = system: DU-145 prostate
IGROV1 ovarian = system: IGROV1 ovarian
SK-MEL-2 melanoma = system: SK-MEL-2 melanoma
U251 CNS = system: U251 CNS
COLO 205 colon = system: COLO 205 colon
HT29 colon = system: HT29 colon
NCI-H522 lung = system: NCI-H522 lung
KM12 colon = system: KM12 colon
OVCAR-4 ovarian = system: OVCAR-4 ovarian
OVCAR-5 ovarian = system: OVCAR-5 ovarian
NCI/ADR-RES ovarian = system: NCI/ADR-RES ovarian
SNB-75 CNS = system: SNB-75 CNS
M14 melanoma = system: M14 melanoma
NCI-H226 lung = system: NCI-H226 lung
HOP-92 NSCLC = system: HOP-92 NSCLC
SK-OV-3 ovarian = system: SK-OV-3 ovarian
MDA-MB-435 = system: MDA-MB-435
MCF7 breast = system: MCF7 breast
UACC-62 melanoma = system: UACC-62 melanoma
HOP-62 NSCLC = system: HOP-62 NSCLC
786-0 renal = system: 786-0 renal
SK-MEL-28 melanoma = system: SK-MEL-28 melanoma
SF-295 CNS = system: SF-295 CNS
EKVX NSCLC = system: EKVX NSCLC
SN12C renal = system: SN12C renal
UO-31 renal = system: UO-31 renal
PC-3 prostate = system: PC-3 prostate
A549 NSCLC = system: A549 NSCLC
MOLT-4 leukemia = system: MOLT-4 leukemia
SF-539 CNS = system: SF-539 CNS
HCT-116 colon = system: HCT-116 colon
RPMI-8226 leukemia = system: RPMI-8226 leukemia
HCT-15 colon = system: HCT-15 colon
HCC-2998 colon = system: HCC-2998 colon
OVCAR-8 ovarian = system: OVCAR-8 ovarian
T-47D breast = system: T-47D breast
NCI-H460 lung = system: NCI-H460 lung
TK-10 renal = system: TK-10 renal
MDA-MB-231 breast = system: MDA-MB-231 breast
SK-MEL-5 melanoma = system: SK-MEL-5 melanoma

`O=C(/C=C\c1cccc([N+](=O)[O-])c1)c1ccccc1` showed a GI50 (SW-620 colon) of 1.81 µM, a TGI (SW-620 colon) of 5.82 µM and a GI50 (K-562 leukemia) of 2.21 µM. The TGI (K-562 leukemia) was > 100 µM, the GI50 (A498 renal) was 9.05 µM and the TGI (A498 renal) was 25.1 µM. The GI50 (LOX IMVI melanoma) was 1.76 µM, the TGI (LOX IMVI melanoma) was 3.82 µM and the GI50 (CCRF-CEM leukemia) was 0.568 µM. For the same compound, the TGI (CCRF-CEM leukemia) was > 100 µM, the GI50 (RXF 393 renal) was 2.01 µM and the TGI (RXF 393 renal) was 5.15 µM. For the same compound, the GI50 (HS 578T breast) was 5.97 µM, the TGI (HS 578T breast) was 61 µM and the GI50 (ACHN renal) was 1.9 µM. For the same compound, the TGI (ACHN renal) was 3.81 µM, the GI50 (SR leukemia) was 2.17 µM and the TGI (SR leukemia) was > 100 µM. For the same compound, the GI50 (NCI-H23 lung) was 6.16 µM, the TGI (NCI-H23 lung) was 21.3 µM and the GI50 (HL-60(TB) leukemia) was 2.91 µM. The TGI (HL-60(TB) leukemia) was > 100 µM, the GI50 (CAKI-1 renal) was 2.53 µM and the TGI (CAKI-1 renal) was 5.8 µM. It also gave a GI50 (SF-268 CNS) of 5.46 µM, a TGI (SF-268 CNS) of 20.5 µM and a GI50 (BT-549 breast) of 2.85 µM. For the same compound, the TGI (BT-549 breast) was 12.1 µM, the GI50 (MALME-3M melanoma) was 2.07 µM and the TGI (MALME-3M melanoma) was 5.01 µM. It also gave a GI50 (SNB-19 CNS) of 6.81 µM, a TGI (SNB-19 CNS) of 21 µM and a GI50 (UACC-257 melanoma) of 4.85 µM. It also gave a TGI (UACC-257 melanoma) of 12.4 µM, a GI50 (OVCAR-3 ovarian) of 1.76 µM and a TGI (OVCAR-3 ovarian) of 3.6 µM. It also gave a GI50 (DU-145 prostate) of 2.35 µM, a TGI (DU-145 prostate) of 5.88 µM and a GI50 (IGROV1 ovarian) of 2.62 µM. For the same compound, the TGI (IGROV1 ovarian) was > 28.6 µM, the GI50 (SK-MEL-2 melanoma) was 3.91 µM and the TGI (SK-MEL-2 melanoma) was 17.9 µM. For the same compound, the GI50 (U251 CNS) was 2.01 µM, the TGI (U251 CNS) was 4.91 µM and the GI50 (COLO 205 colon) was 2.04 µM. For the same compound, the TGI (COLO 205 colon) was 4.12 µM, the GI50 (HT29 colon) was 2.77 µM and the TGI (HT29 colon) was > 100 µM. The GI50 (NCI-H522 lung) was 1.46 µM, the TGI (NCI-H522 lung) was 3.93 µM and the GI50 (KM12 colon) was 2.36 µM. For the same compound, the TGI (KM12 colon) was 5.41 µM, the GI50 (OVCAR-4 ovarian) was 3.38 µM and the TGI (OVCAR-4 ovarian) was 12.6 µM. It also gave a GI50 (OVCAR-5 ovarian) of 3.92 µM, a TGI (OVCAR-5 ovarian) of 18.7 µM and a GI50 (NCI/ADR-RES ovarian) of 5.48 µM. The TGI (NCI/ADR-RES ovarian) was 30.1 µM, the GI50 (SNB-75 CNS) was 9.82 µM and the TGI (SNB-75 CNS) was 30.5 µM. The GI50 (M14 melanoma) was 3.74 µM, the TGI (M14 melanoma) was 14.2 µM and the GI50 (NCI-H226 lung) was 18.7 µM. The TGI (NCI-H226 lung) was 45.9 µM, the GI50 (HOP-92 NSCLC) was 2.04 µM and the TGI (HOP-92 NSCLC) was 5.12 µM. For the same compound, the GI50 (SK-OV-3 ovarian) was 15 µM, the TGI (SK-OV-3 ovarian) was 30.4 µM and the GI50 (MDA-MB-435) was 3.53 µM. The TGI (MDA-MB-435) was 14.4 µM, the GI50 (MCF7 breast) was 1.81 µM and the TGI (MCF7 breast) was 9.71 µM. It also gave a GI50 (UACC-62 melanoma) of 7.93 µM, a TGI (UACC-62 melanoma) of 22 µM and a GI50 (HOP-62 NSCLC) of 19.5 µM. For the same compound, the TGI (HOP-62 NSCLC) was 46.6 µM, the GI50 (786-0 renal) was 4.95 µM and the TGI (786-0 renal) was 12.7 µM. It also gave a GI50 (SK-MEL-28 melanoma) of 2.17 µM, a TGI (SK-MEL-28 melanoma) of 4.6 µM and a GI50 (SF-295 CNS) of 7.68 µM. The TGI (SF-295 CNS) was 29.5 µM, the GI50 (EKVX NSCLC) was 13.1 µM and the TGI (EKVX NSCLC) was 29.1 µM. The GI50 (SN12C renal) was 3.71 µM, the TGI (SN12C renal) was 14.1 µM and the GI50 (UO-31 renal) was 1.79 µM. It also gave a TGI (UO-31 renal) of 4.11 µM, a GI50 (PC-3 prostate) of 2.67 µM and a TGI (PC-3 prostate) of 11.3 µM. For the same compound, the GI50 (A549 NSCLC) was 21 µM, the TGI (A549 NSCLC) was 68.2 µM and the GI50 (MOLT-4 leukemia) was 3.19 µM. The TGI (MOLT-4 leukemia) was > 100 µM, the GI50 (SF-539 CNS) was 3.4 µM and the TGI (SF-539 CNS) was 9.81 µM. It also gave a GI50 (HCT-116 colon) of 1.72 µM, a TGI (HCT-116 colon) of 5.07 µM and a GI50 (RPMI-8226 leukemia) of 1.07 µM. For the same compound, the TGI (RPMI-8226 leukemia) was > 100 µM, the GI50 (HCT-15 colon) was 2.16 µM and the TGI (HCT-15 colon) was 5.95 µM. For the same compound, the GI50 (HCC-2998 colon) was 2.81 µM, the TGI (HCC-2998 colon) was 9.74 µM and the GI50 (OVCAR-8 ovarian) was 3.66 µM. The TGI (OVCAR-8 ovarian) was 17 µM, the GI50 (T-47D breast) was 2.33 µM and the TGI (T-47D breast) was 6.1 µM. For the same compound, the GI50 (NCI-H460 lung) was 7.54 µM, the TGI (NCI-H460 lung) was 28.5 µM and the GI50 (TK-10 renal) was 2.05 µM. It also gave a TGI (TK-10 renal) of 5.32 µM, a GI50 (MDA-MB-231 breast) of 9.72 µM and a TGI (MDA-MB-231 breast) of 25.1 µM. The GI50 (SK-MEL-5 melanoma) was 6.97 µM and the TGI (SK-MEL-5 melanoma) was 20.2 µM.

Reference: PubChem BioAssay (NCI)
